Assay results taken from the NIST ThermoML archive (doi:10.1016/j.jct.2009.06.007).

Key:
[1] = xn = mol fraction of the nth substance listed; conditions: 298.15 K, 101 kPa, Liquid; for viscosity: Capillary tube (Ostwald / Ubbelohde) method; for mass density: Vibrating tube method
[2] = refractive index (Na D-line) (dimensionless); xn = mol fraction of the nth substance listed; conditions: 298.15 K, 101 kPa, Liquid, Standard Abbe refractometry
[3] = 298.15 K, 101.33 kPa, Liquid

COC(C)=O [methyl ethanoate] + CO
Conditions	mass density, [1] [kg/m3]	refractive index, [2]	viscosity, [1] [mPa·s]
x1 = 0.0939	810.62	1.3322	0.491
x1 = 0.1986	833.17	1.33757	0.452
x1 = 0.3009	851.78	1.34192	0.417
x1 = 0.4016	867.5	1.3456	0.393
x1 = 0.4943	880.02	1.34851	0.378
x1 = 0.5851	890.77	1.35095	0.369
x1 = 0.6941	902.17	1.35349	0.361
x1 = 0.7694	909.19	1.35503	0.358
x1 = 0.8875	918.93	1.35712	0.358

CCCCCCCCn1cc[n+](C)c1.O=S(=O)([N-]S(=O)(=O)C(F)(F)F)C(F)(F)F
[3]
Conditions	mass density [kg/m3]	viscosity [mPa·s]
Capillary tube (Ostwald / Ubbelohde) method	–	92.51
Pycnometric method	1320.59	–

CCCCCCCCn1cc[n+](C)c1.O=S(=O)([N-]S(=O)(=O)C(F)(F)F)C(F)(F)F + CO
Conditions	mass density, [1] [kg/m3]	refractive index, [2]	viscosity, [1] [mPa·s]
x2 = 0.0654	1316.5	1.43207	78.34
x2 = 0.0863	1315.1	1.43188	74.57
x2 = 0.2134	1305.18	1.42995	53.65
x2 = 0.3138	1295.08	1.42809	40.77
x2 = 0.3873	1285.91	1.42619	32.92
x2 = 0.5038	1267.04	1.42266	22.27
x2 = 0.6155	1240.79	1.41741	14.57
x2 = 0.7018	1210.98	1.41157	9.493
x2 = 0.805	1154.04	1.40017	4.919
x2 = 0.902	1052.54	1.38017	2.144

CCCCCCCCn1cc[n+](C)c1.O=S(=O)([N-]S(=O)(=O)C(F)(F)F)C(F)(F)F + COC(C)=O
Conditions	mass density, [1] [kg/m3]	refractive index, [2]	viscosity, [1] [mPa·s]
x2 = 0.0699	1314.77	1.4319	75.62
x2 = 0.1317	1308.87	1.43089	63.25
x2 = 0.1748	1304.45	1.43009	56.12
x2 = 0.2177	1299.57	1.42927	49.13
x2 = 0.3226	1285.83	1.42694	33.76
x2 = 0.4105	1271.88	1.42453	23.79
x2 = 0.5011	1253.68	1.42124	15.98
x2 = 0.6001	1228.33	1.41684	9.815
x2 = 0.6992	1193.95	1.41055	5.527
x2 = 0.7872	1151.29	1.40296	3.066
x2 = 0.8984	1067.39	1.387	1.206
